From patent publication US9844226B2 (AJINOMOTO CO., INC., priority 2009, dated 2017) come the findings set out here.

The test system of this assay is panelists. Kind of assay: Strength of kokumi-imparting activity by Point of Subjective Equality (PSE), limit-determining technique. Conditions: from PSE. Type of assay: in vivo, human. The method, then:
The intensity of the kokumi-imparting activity of γ-Glu-Abu was determined by Point of Subjective Equality (PSE) according to the limit-determining technique (“Statistical Sensory Examination techniques”, written by SATO Shin, published by Japan Federation of Science and Technology). The sensory evaluation was carried out as follows: Distilled water containing sodium glutamate (0.05 g/dL), inosine monophosphate (0.05 g/dL) and sodium chloride (0.5 g/dL) was used as the solution for the sensory evaluation. […] To determine the concentration of γ-Glu-Val at which the strength of taste is the same as that of a solution obtained by causing the solution for the sensory evaluation to contain 0.005 g/dL of γ-[…] solutions were prepared with a concentration that varied on a 50% logarithmic scale by using a solution obtained by causing the solution for the sensory evaluation, to contain 0.01 g/dL of γ-Glu-Val as a standard. The concentrations of γ-Glu-Val was set to 7 values ranging from 0.0030 to 0.0337 g/dL. After the test substance was dissolved, samples more acidic than the control with no added test substance were adjusted, before further use, with NaOH to have a pH in a range of ±0.2 as compared to the pH of the control with no added test substance. The solutions were presented to eighteen panelists in ascending order of the γ-Glu-Val concentration. The evaluation was carried out until each panelist perceived that the strength was higher than that of the 0.005 g/dL γ-Glu-Abu solution. After a certain interval, the solutions were next presented to the eighteen panelists in descending order of the γ-Glu-Val concentration. The evaluation was carried out until each panelist perceived that the strength was lower than that of the 0.005 g/dL γ-Glu-Abu solution. In this sensory evaluation, the panelists were experienced in the development of food products. When the lower and upper threshold values were the same, there was no γ-Glu-Val concentration at which the difference between the perception that the strength was lower, and the perception that the strength was higher, was uncertain. […] Each confidence threshold (average) is an average of the lower thresholds and the upper thresholds. The point of subjective equality (PSE) of γ-Glu-Val to 50 ppm (0.0050 g/dL) of γ-Glu-Abu is expressed as follows: (the sum of the confidence threshold of the lower thresholds and that of the upper threshold value)/2.

In the case of `CC[C@H](NC(=O)CC[C@H](N)C(=O)O)C(=O)O`, the “Strength of γ-Glu-Abu relative to γ-Glu-Val” value is listed as “approximately 2.4 times”.
